In ChEMBL document CHEMBL1795326, “Pharmacophore based virtual screening, molecular docking studies to design potent heat shock protein 90 inhibitors” (Eur J Med Chem, 2011):

Experiment: Inhibition of HSP90

Row | IC50 | SMILES
1 | 60 µM | Cc1ccccc1[C@H]1CCCN1C(=O)c1ccc(O)cc1O
2 | 30 µM | Cc1nc(N)nc2c1/C(=N/O)C[C@@H](c1ccc(F)cc1-c1cccnc1)C2
3 | 190 µM | Oc1ccc2c(-c3cc(Br)c(O)cc3O)noc2c1
4 | 40 µM | CCOC(=O)NCc1ccc(-n2cnnc2-c2cc(C(C)C)c(O)cc2O)cc1
